From ChEMBL document CHEMBL1155159, “Population pharmacokinetics of tafenoquine during malaria prophylaxis in healthy subjects” (Antimicrob Agents Chemother, 2007)

Columns and labels:
[1] = Clast in po dosed human receiving 600 mg cumulative dose and reporting drug-associated vomiting and/or nausea reported on day 3 at 200 mg daily for 3 days followed by weekly dose of 200 mg for 6 months; assay type: ADME, organism-based; settings: in vivo, read-out: Clast
[2] = Clast in po dosed human […] and reporting drug-associated hyperesthesia on day 12 dosed at 200 mg daily for 3 days followed by weekly dose of 200 mg for 6 months; assay type: ADME, organism-based; settings: in vivo, read-out: Clast
[3] = Clast in po dosed human receiving 1000 mg cumulative dose and reporting drug-associated abdominal pain on day 20 at 200 mg daily for 3 days followed by weekly dose of 200 mg for 6 months; assay type: ADME, organism-based, Abdomen; settings: in vivo, read-out: Clast
[4] = Clast in po dosed human receiving 1000 mg cumulative dose and reporting drug-associated depression reported on day 24 at 200 mg daily for 3 days followed by weekly dose of 200 mg for 6 months; assay type: ADME, organism-based; settings: in vivo, read-out: Clast
[5] = Apparent clearance with respect to the bioavailability po dosed human receiving 400 mg cumulative dose and reporting drug-associated diarrhea and/or abdominal pain on day 2 at 200 mg daily for 3 days followed by weekly dose of 200 mg for 6 months; assay type: ADME, organism-based, Abdomen; settings: in vivo
[6] = Apparent clearance with respect to the bioavailability po dosed human receiving 200 mg cumulative dose and reporting drug-associated insomnia reported on day 1 at 200 mg daily for 3 days followed by weekly dose of 200 mg for 6 months; assay type: ADME, organism-based; settings: in vivo
[7] = Apparent clearance with respect to the bioavailability po dosed human receiving 800 mg cumulative dose and reporting drug-associated with hyperesthesia on day 12 at 200 mg daily for 3 days followed by weekly dose of 200 mg for 6 months; assay type: ADME, organism-based; settings: in vivo
[8] = Apparent clearance with respect to the bioavailability po dosed human receiving 1000 mg cumulative dose and reporting drug-associated depression on day 24 at 200 mg daily for 3 days followed by weekly dose of 200 mg for 6 months; assay type: ADME, organism-based; settings: in vivo
[9] = Apparent clearance with respect to the bioavailability in human at 600 mg cumulative dose with vomiting and/or nausea reported on day 3 at 200 mg daily for 3 days followed by weekly dose of 200 mg for 6 months, po; assay type: ADME, organism-based; settings: in vivo
[10] = Apparent volume of distribution with respect to the bioavailability in po dosed human receiving 400 mg cumulative dose and reporting drug-associated diarrhea and/or abdominal pain on day 2 at 200 mg daily for 3 days followed by weekly dose of 200 mg for 6 months; assay type: ADME, organism-based, Abdomen; settings: in vivo, read-out: Vc/F
[11] = Apparent volume of distribution with respect to the bioavailability in po dosed human receiving 400 mg cumulative dose and reporting drug-associated insomnia on day 1 at 200 mg daily for 3 days followed by weekly dose of 200 mg for 6 months; assay type: ADME, organism-based; settings: in vivo, read-out: Vc/F
[12] = Apparent volume of distribution with respect to the bioavailability in po dosed human receiving 800 mg cumulative dose and reporting drug-associated hyperesthesia on day 12 at 200 mg daily for 3 days followed by weekly dose of 200 mg for 6 months; assay type: ADME, organism-based; settings: in vivo, read-out: Vc/F
[13] = Apparent volume of distribution with respect to the bioavailability in po dosed human receiving 1000 mg cumulative dose and reporting drug-associated abdominal pain on day 20 at 200 mg daily for 3 days followed by weekly dose of 200 mg for 6 months; assay type: ADME, organism-based, Abdomen; settings: in vivo, read-out: Vc/F
[14] = Apparent volume of distribution with respect to the bioavailability in po dosed human receiving 1000 mg cumulative dose and reporting drug-associated depression on day 24 at 200 mg daily for 3 days followed by weekly dose of 200 mg for 6 months; assay type: ADME, organism-based; settings: in vivo, read-out: Vc/F
[15] = Apparent volume of distribution with respect to the bioavailability in po dosed human receiving 600 mg cumulative dose and reporting drug-associated vomiting and/or nausea on day 3 at 200 mg daily for 3 days followed by weekly dose of 200 mg for 6 months; assay type: ADME, organism-based; settings: in vivo, read-out: Vc/F
[16] = Half life po dosed human receiving 400 mg cumulative dose and reporting drug-associated diarrhea and/or abdominal pain on day 2 at 200 mg daily for 3 days followed by weekly dose of 200 mg for 6 months; assay type: ADME, organism-based, Abdomen; settings: in vivo
[17] = Half life po dosed human receiving 200 mg cumulative dose and reporting drug-associated insomnia on day 1 at 200 mg daily for 3 days followed by weekly dose of 200 mg for 6 months; assay type: ADME, organism-based; settings: in vivo
[18] = Half life po dosed human receiving 800 mg cumulative dose and reporting drug-associated hyperesthesia on day 12 at 200 mg daily for 3 days followed by weekly dose of 200 mg for 6 months; assay type: ADME, organism-based; settings: in vivo
[19] = Half life po dosed human receiving 1000 mg cumulative dose and reporting drug-associated abdominal pain on day 20 at 200 mg daily for 3 days followed by weekly dose of 200 mg for 6 months; assay type: ADME, organism-based, Abdomen; settings: in vivo
[20] = Half life po dosed human receiving 1000 mg cumulative dose and reporting drug-associated depression on day 24 at 200 mg daily for 3 days followed by weekly dose of 200 mg for 6 months; assay type: ADME, organism-based; settings: in vivo
[21] = Half life po dosed human receiving 1000 mg cumulative dose and reporting drug-associated vomiting and/or nausea on day 3 at 200 mg daily for 3 days followed by weekly dose of 200 mg for 6 months; assay type: ADME, organism-based; settings: in vivo
[22] = Apparent clearance with respect to bioavailability in po dosed human at 200 mg daily for 3 days followed by weekly dose of 200 mg for 6 months; assay type: ADME, organism-based; settings: in vivo
[23] = Apparent volume of distribution with respect to bioavailability in po dosed human at 200 mg daily for 3 days followed by weekly dose of 200 mg for 6 months; assay type: ADME, organism-based; settings: in vivo, read-out: Vc/F
[24] = Half life in po dosed human at 200 mg daily for 3 days followed by weekly dose of 200 mg for 6 months; assay type: ADME, organism-based; settings: in vivo
[25] = Tmax in fasted human; assay type: ADME, organism-based; settings: in vivo
[26] = Tmax in human administered with standard high-fat meal; assay type: ADME, organism-based; settings: in vivo
[27] = Trough concentration in po dosed human at 200 mg daily for 3 days followed by weekly dose of 200 mg for 6 months after 4 weeks; assay type: ADME, organism-based; settings: in vivo, read-out: Cmin
[28] = Apparent clearance with respect to the bioavailability po dosed human receiving 1000 mg cumulative dose and reporting drug-associated abdominal pain on day 20 at 200 mg daily for 3 days followed by weekly dose of 200 mg for 6 months; assay type: ADME, organism-based, Abdomen; settings: in vivo
[29] = Trough concentration in po dosed human at 200 mg daily for 3 days followed by weekly dose of 200 mg for 6 months after 8 weeks; assay type: ADME, organism-based; settings: in vivo, read-out: Cmin
[30] = Trough concentration in po dosed human at 200 mg daily for 3 days followed by weekly dose of 200 mg for 6 months after 16 weeks; assay type: ADME, organism-based; settings: in vivo, read-out: Cmin

Q: What does the source list for `COc1cc(C)c2c(Oc3cccc(C(F)(F)F)c3)c(OC)cc(NC(C)CCCN)c2n1` (stereo not given) [TAFENOQUINE]?
A: concentration at 72 h [1]: 315 ng/mL; concentration at 72 h [2]: 283 ng/mL; concentration at 72 h [3]: 253 ng/mL; concentration at 72 h [4]: 275 ng/mL; CL/F [5]: 0.983 mL/min/kg; CL/F [6]: 0.983 mL/min/kg; CL/F [7]: 0.767 mL/min/kg; CL/F [8]: 1.02 mL/min/kg; CL/F [9]: 1.28 mL/min/kg; Vd/F [10]: 24.4 L/kg; Vd/F [11]: 23.2 L/kg; Vd/F [12]: 20.7 L/kg; Vd/F [13]: 27.8 L/kg; Vd/F [14]: 25.1 L/kg; Vd/F [15]: 26.1 L/kg; half-life [16]: 12 days; half-life [17]: 11.3 days; half-life [18]: 13.1 days; half-life [19]: 15.1 days; half-life [20]: 12 days; half-life [21]: 9.8 days; CL/F [22]: 72.8 mL/min; Vd/F [23]: 1900 L; half-life [24]: 12.7 days; Tmax [25]: 0.775 days; Tmax [26]: 1.1 days; concentration at 672 h [27]: 221 ng/mL; CL/F [28]: 0.883 mL/min/kg; concentration at 1344 h [29]: 221 ng/mL; concentration at 2688 h [30]: 221 ng/mL
